PMC7356692, “Structural Basis of Specific Glucoimidazole and Mannoimidazole Binding by Os3BGlu7” (Biomolecules, 2020)

Biological target: T1, Os3BGlu7 (Oryza sativa, UniProt Q75I93)
T1 construct: gene BGLU7; recombinant from E. coli Origami (DE3); IMAC, fusion tag removed with enterokinase; mature enzyme; two molecules per asymmetric unit
Experiment: X-ray crystallography, […] Å
Type: binding
Conditions: crystal soaked in 10 mM mannoimidazole preparation (GIm as contaminant or isomerization product); -1 subsite; pH 6.7

T1 sequence (Q75I93 29-504): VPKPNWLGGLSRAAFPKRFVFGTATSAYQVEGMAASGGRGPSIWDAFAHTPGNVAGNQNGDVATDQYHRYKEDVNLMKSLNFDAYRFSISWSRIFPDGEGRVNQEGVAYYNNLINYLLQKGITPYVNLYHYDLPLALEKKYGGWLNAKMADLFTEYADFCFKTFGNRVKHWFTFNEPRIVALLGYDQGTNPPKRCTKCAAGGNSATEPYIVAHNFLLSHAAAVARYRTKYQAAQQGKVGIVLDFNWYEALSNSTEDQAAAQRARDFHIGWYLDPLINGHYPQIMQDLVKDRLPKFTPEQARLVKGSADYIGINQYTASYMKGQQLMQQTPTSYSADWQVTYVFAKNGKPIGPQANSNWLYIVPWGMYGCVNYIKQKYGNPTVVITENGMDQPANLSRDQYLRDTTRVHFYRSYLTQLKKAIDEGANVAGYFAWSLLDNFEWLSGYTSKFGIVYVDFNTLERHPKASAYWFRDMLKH

## OC[C@@H]1[C@@H](O)[C@H](O)[C@@H](O)c2nccn21 [glucoimidazole]
  X-ray crystallography, 2.3 Å: electron densities of ligand in the active sites of both protein molecules in the asymmetric unit
